# Experimental data: EP3964206A1, “COMPOUNDS FOR THE TREATMENT OF COVID-19” (priority 2020, dated 2022)
# pIC50: −log10 of the molar value. Counter-ions that a name gives are not always drawn. Like-named read-outs stand apart in the source and are kept apart here.
# System: SARS-CoV-2
# Assay: microbe, parasite or virus in culture
# Assay type: cell-based
# Conditions: for Emax: read-out: Maximum confluence reached (%)
# [1] = Severe acute respiratory syndrome coronavirus 2, 120 h
Molecule,Emax [1] [%],also measured
"CC[C@@]1([C@@H]2O[C@@H]([C@H]3O[C@@](O)(COC(=O)Nc4ccccc4)[C@H](C)C[C@@H]3C)C[C@@H]2C)CC[C@H]([C@]2(C)CC[C@]3(C[C@H](O)[C@@H](C)[C@@H]([C@@H](C)[C@@H](OC)[C@H](C)C(=O)O)O3)O2)O1 [Compound 98, 4(S)-[(2S,5R,7S,8R,9S)-2-[(2S,2'R,3'S,5R,5'R)-2-Ethyl-5'-[6(R)-hydroxy-3(S),5(R)-dimethyl-6-(phenylaminocarbonyloxymethyl)tetrahydropyran-2(S)-yl]-3'-methylperhydro-2,2'-bifuran-5-yl]-9-hydroxy-2,8-dimethyl-1,6-dioxaspiro[4.5]dec-7-yl]-3(R)-methoxy-2(S)-methylpentanoic acid sodium salt]",38.2,pIC50 [1]: 5.50
"O=c1cc(N2CCOCC2)oc2c(-c3cccc4c3sc3ccccc34)cccc12 [Compound 69, 8-(Dibenzo[b,d]thien-4-yl)-2-(4-morpholinyl)-4H-1-benzopyran-4-one]",90.5,
"CC(C)(C)c1cc(C=C(C#N)C#N)cc(C(C)(C)C)c1O [Compound 103, (3,5-Di-tert-butyl-4-hydroxybenzylidene)malononitrile]",,pIC50 [1]: 3.69
"O=C(c1c2ccccc2cc2ccccc12)N1CCC(N2CCC[C@@H](C(=O)N3CCOCC3)C2)CC1 [Compound 81, 1-[1'-(Anthracen-9-ylcarbonyl)-1,4'-bipiperidin-3(R)-yl]-1-(4-morpholinyl)methanone]",51,
"Cc1[nH]c(/C=C2\C(=O)Nc3ccc(S(=O)(=O)Cc4c(Cl)cccc4Cl)cc32)c(C)c1C(=O)N1CCC[C@@H]1CN1CCCC1 [Compound 53, 5-(2,6-Dichlorobenzylsulfonyl)-3(Z)-[3,5-dimethyl-4-[2(R)-(pyrrolidin-1-ylmethyl)pyrrolidin-1-ylcarbonyl]-1H-pyrrol-2-ylmethylene]-2,3-dihydro-1H-indol-2-one]",95.7,
"CC(C)C(=O)OCC(=O)[C@@]12O[C@H](C3CCCCC3)O[C@@H]1C[C@H]1[C@@H]3CCC4=CC(=O)C=C[C@]4(C)[C@H]3[C@@H](O)C[C@@]12C [Compound 96, 16alpha,17alpha-[(R)-Cyclohexylmethylenedioxy]-11beta-hydroxy-21-(isobutyryloxy)pregna-1,4-dien-3-one]",35.2,pIC50 [1]: 4.33
"Cc1cc(O[C@@H](CCC(F)(F)F)c2ccc(C(=O)NCCC(=O)O)cc2)cc(C)c1-c1ccc(C(C)(C)C)cc1 [Compound 57, N-(4-[(1S)-1-[(4'-tert-Butyl-2,6-dimethylbiphenyl-4-yl)oxy]-4,4,4-trifluorobutyl]benzoyl)-beta-alanine]",39.5,
"Oc1c(Cl)cc(Cl)cc1Sc1cc(Cl)cc(Cl)c1O [Compound 102, 2,2'-Thio-bis(4,6-dichlorophenol)]",31.2,
"O=[N+]([O-])c1ccc(N/N=C/c2sc(N3CCOCC3)nc2-c2ccccc2)c(S(=O)(=O)Nc2ccccc2Cl)c1 [Compound 73, N-(2-chlorophenyl)-2-[(2E)-2-[(2-morpholin-4-yl-4-phenyl-1,3-thiazol-5-yl)methylidene]hydrazinyl]-5-nitrobenzenesulfonamide]",53.9,
"(1R,2S,3R)-3-(6-Amino-9H-purin-9-yl)-1,2-cyclopentanediol [Compound 75]",,Maximum confluence reached (%): 33.14%; pIC50 (read-out: IC50): 6.44
"CN1CCN(CC/C=C2/c3ccccc3Sc3ccc(S(=O)(=O)N(C)C)cc32)CC1 [Compound 109, (Z)-N,N-Dimethyl-9-[3-(4-methyl-1-piperazinyl)propylidene]thioxanthene-2-sulfonamide]",36.5,
"(4R,4aS)-18-Ethenyl-4,4a-dihydro-3,4-bis(methoxycarbonyl)-4a,8,14,19-tetramethyl-24H,26H-benzo[b]porphine-9,13-dipropanoic acid monomethyl ester [Compound 39]",,Maximum confluence reached (%): 89.5%; pIC50 (read-out: IC50): 4.52
